Laboratory results published in patent EP1210336B1, “SUBSTITUTED BENZIMIDAZOLES AS NON-NUCLEOSIDE INHIBITORS OF REVERSE TRANSCRIPTASE” (THE UNITED STATES OF AMERICA, as represented by the …, priority 1999, dated 2001).
Where “and” joins values, the source holds several entries; their conditions need not be identical. Identical values can stand only once. Like-named read-outs stand apart in the source and are kept apart here.

Assays:
WT virus (NL4-3) = experiment: microbe, parasite or virus in culture; type: cell-based, HIV-1; settings: for EC50: read-out: EC50; for cytotoxicity and anti-viral effect (summary graph): Figures 10-12, result in words
Procedure: Evaluation of these compounds for the inhibition of HIV-1 was determined as the fifty percent cell culture inhibitory concentration (CIC50) in CEMSS cell culture with WT virus (NL4-3).
(§1) In this Example, the antiviral and cellular toxicity of NNRTIs was investigated, using the cytopathic cell killing assay described by Yang (Yang et al., "Characteristics of a Group of Non-nucleoside Reverse Transcriptase Inhibitors with Structural Diversity and Potent Anti-Human Immunodeficiency Virus Activity," Leukemia 9:S75-S85 [1995]). Briefly, in this method cells (e.g., the CEM-SS cell line, available from the NIAID AIDS Research and Reference Program [ARRRP]) were seeded at a density of 5 x 10^3 cells/well, into the wells of a 96-well microtiter plate. The cells were then infected with HIV virus (either mutant or WT), at a multiplicity of infection (MOI) previously determined to provide complete cell killing by 6 days of culture post-infection (e.g., MOI of 0.01-0.05). Each of the HIV isolates was pre-titered to induce equivalent levels of infection based on cell killing or virus production, prior to their use in these assays. A range of test compound concentrations was added to the wells in triplicate (e.g., serial half-log dilutions) to evaluate inhibition of HIV infection. Controls for each assay included drug controls (drug colorimetric control wells), drug cytotoxicity control wells (cells with drug), virus control wells (cells with virus), and cell viability controls (cells only). Positive control drugs (e.g., AZT and ddC) were also run in parallel.
(§2) After six days of incubation at 37°C, cell viability was determined spectrophotometrically at 450 nm for each well, using the metabolic reduction of XTT to a soluble colored formazan. (See, Gartner and Popovic, "Virus Isolation and Production, in Aldovini and Walker (eds.), Techniques in HIV Research, Stockton Press, NY, pp. […] [1991]; and Nara and Fischinger, "Quantitative Infectivity Assay for HIV-1 and HIV-2," Nature 332:469-470 [1988]).
(§3) The in vitro therapeutic index (TI50) was defined as the fold-difference between the EC50 and IC50. The results for the various compounds are included in Figures 8 and 19.

HIV-1 variant K101E = experiment: Cytopathic cell killing assay, cross-resistance profile, infected MT-4 cells; type: cell-based
Source text: (§4) The various HIV isolates tested in the Figures are those corresponding to wild-type virus (NL4-3) and the other strains listed by their RT mutations. The three 4xAZT isolates included in the Figures represent AZT drug-resistant variants. For example, the 4xAZT/L100I isolate has five mutations: four mutations confer increased resistance to AZT, and the other mutation is located within the NNRTI binding pocket. TZB and nevir. (nevirapine) are two well-known NNRTIs, included in this experiment for comparison purposes. […]
as §1, §2, §3

HIV-1 variant Y181C = experiment: as above; type: cell-based; settings: isolate Y181C
Source text: as §4, §1, §2, §3

HIV-1 variant V108I = experiment: as above; type: cell-based
Source text: as §4, §1, §2, §3

HIV-1 variant K103N = experiment: as above; type: cell-based; settings: isolate K103N
Source text: as §4, §1, §2, §3

HIV-1 variant Y188C = experiment: as above; type: cell-based; settings: Table 10 (values in µM); isolate Y188C; read-out: EC50
Source text: as §4, §1, §2, §3

NL4-3 (WT) = experiment: as above; type: cell-based, HIV-1
Source text: as §4, §1, §2, §3

HIV-1 WT RT = target: T1, HIV-1 WT RT (Human immunodeficiency virus type 1 group M subtype B, UniProt P03366); experiment: biochemical; settings: for inhibition at 10 µM: 10 µM drug concentration; for IC50: read-out: IC50
T1 construct: purified RT protein (0.015 mg/mL) was incubated in a 100 µL reaction mixture

HIV-1 variant L100I = experiment: Cytopathic cell killing assay, cross-resistance profile, infected MT-4 cells; type: cell-based; settings: isolate L1001
Source text: as §4, §1, §2, §3

[1] = Table 11, CEMSS/NL4-3, NRVC = reduction in viral CPE not seen (footnote)
[2] = Table 10 (values in µM), read-out: EC50
[3] = Table 3, WT RT, read-out: %inhibn (10 µM)
[4] = Table 2, WT RT, read-out: %inhibn (10µM)
[5] = Table 1, WT RT, read-out: %inhibn (10µM)
[6] = Human immunodeficiency virus 1, MT4, Table 9

How did the EC50 (WT virus (NL4-3); [1]) turn out when [N-]=[N+]=NCc1cccc2c1nc(-c1c(F)cccc1F)n2Cc1c(F)cccc1F [compound 70, 1-(2,6-difluorobenzyl)-2-(2,6-difluorophenyl)benzimidazol-4-yl-azidomethyl] was run?
The EC50 was 45 nM.

And the EC50 (HIV-1 variant K101E; Table 10 (values in µM), isolate K101E, read-out: EC50)?
Its EC50 is 0.6 µM.

What about the EC50 (HIV-1 variant Y181C; [2]) of the same compound?
Its EC50 is 0.82 µM.

And the EC50 (HIV-1 variant V108I; Table 10 (values in µM), isolate V108l, read-out: EC50)?
Its EC50 is 0.026 µM.

What about the EC50 (HIV-1 variant K103N; [2]) of the same compound?
The EC50 was 1.48 µM.

What about the EC50 (HIV-1 variant Y188C) of the same compound?
Its EC50 is 0.22 µM.

And the EC50 (NL4-3 (WT); Table 10 (values in µM), isolate NL4-3 (WT), listed as CH2-N3, read-out: EC50)?
Its EC50 is 0.045 µM and 0.06 µM.

Cc1nc2ccccc2n1Cc1c(F)cccc1F [compound 35, 1-(2,6-difluorobenzyl)-2-methylbenzimidazole] was tested. Which inhibition at 10 µM (HIV-1 WT RT; [3]) did it give?
Its inhibition at 10 µM is 22%.

With “1-(2,6-Difluorobenzyl)-2-(2,6-difluorophenyl)-4-isopropenylbenzimidazole [compound 66]” as the compound, how does the EC50 (WT virus (NL4-3); [1]) read?
Its EC50 is 1440 nM.

Which “EC50 (µM)” value (WT virus (NL4-3); [1]) does the source give for CC(=O)NCc1cccc2c1nc(-c1c(F)cccc1F)n2Cc1c(F)cccc1F [compound 72] here?
The value was “NRVC”.

Which inhibition at 10 µM (HIV-1 WT RT; [4]) does the source give for O=S(=O)(c1ccccc1)n1c(-c2c(F)cccc2F)nc2ccccc21 [compound 45] here?
Its inhibition at 10 µM is 52%.

How did the “cytotoxicity and anti-viral effect (summary graph)” value (WT virus (NL4-3)) turn out when Cc1cccc2c1nc(C(C)C)n2Cc1c(F)cccc1F [compound 34, 1-(2,6-difluorobenzyl)-2-isopropyl-4-methylbenzimidazole] was run?
The value was “effective therapeutic dose”.

What about the inhibition at 10 µM (HIV-1 WT RT; [3]) of the same compound?
The inhibition at 10 µM was 53%.

Which EC50 (WT virus (NL4-3); Human immunodeficiency virus 1, NL43, CEM-SS, Table 11, CEMSS/NL4-3, NRVC = reduction in viral CPE not seen (footnote)) does the source give for N=C(NO)c1cccc2c1nc(-c1c(F)cccc1F)n2Cc1c(F)cccc1F [compound 61, N-hydroxy 1-(2,6-difluorobenzyl)-2-(2,6-difluorophenyl)benzimidazole-4-carboxamidine] here?
Its EC50 is 190 nM.

With Cc1cccc2c1nc(-c1ccc(C#N)cc1)n2Cc1c(F)cccc1F [compound 4007] as the compound, how does the inhibition at 10 µM (HIV-1 WT RT; [5]) read?
The inhibition at 10 µM was 26%.

Fc1cccc(F)c1COCc1nc2ccccc2n1Cc1c(F)cccc1F [compound 32, 1-(2,6-difluorobenzyl)-2-(2,6-difluorobenzyloxymethyl)benzimidazole] was tested. Which inhibition at 10 µM (HIV-1 WT RT; [3]) did it give?
The inhibition at 10 µM was 7%.

How did the EC50 (WT virus (NL4-3); [1]) turn out when CC(C)(O)c1cccc2c1nc(-c1c(F)cccc1F)n2Cc1c(F)cccc1F [compound 65, 1-(2,6-Difluorobenzyl)-2-(2,6-difluorophenyl)-4-benzimidazoyl-2-propanol] was run?
Its EC50 is 634000 nM.

How did the EC50 (WT virus (NL4-3); [1]) turn out when “1-(2,6-difluorobenzyl)-2-(2,6-difluorophenyl)-4-acetoxymethylbenzimidazole [compound 51]” was run?
Its EC50 is 59 nM.

With “1-(2,6-difluorobenzyl)-2-(2,6-difluorophenyl)-4-cyanobenzimidazole [compound 60]” as the compound, how does the EC50 (WT virus (NL4-3); [1]) read?
Its EC50 is 430 nM.

With CN(C)C(=O)c1cccc2c1nc(-c1c(F)cccc1F)n2Cc1c(F)cccc1F [compound 63, 1-(2,6-difluorobenzyl)-2-(2,6-difluorophenyl)benzimidazole-4-carboxylic acid dimethylamide] as the compound, how does the “EC50 (µM)” value (WT virus (NL4-3); [1]) read?
The value was “NRVC”.

“1-(2,6-Difluorobenzyl)-2-(2,6-difluorophenyl)benzimidazole-4-carboxylate [compound 64]” was tested. Which “EC50 (µM)” value (WT virus (NL4-3); [1]) did it give?
Its value is “NRVC”.

Which results are given for CN(C)c1cccc2c1nc(-c1c(F)cccc1F)n2Cc1c(F)cccc1F [compound 59, 1-(2,6-difluorobenzyl)-2-(2,6-difluorophenyl)-4-N,N dimethylaminobenzimidazole]?
EC50 (WT virus (NL4-3); Table 7, concentration reducing cell killing or virus production by 50%, HIV-1 WT): 2370 nM; EC50 (WT virus (NL4-3); [1]): 2370 nM; IC50 (HIV-1 WT RT; Table 7, HIV-1 WT RT): 40000 nM; %inhibn (1µM) (HIV-1 WT RT; Table 7, WT HIV-1 RT, 1 µM drug): 77%; IC50 (HIV-1 WT RT; Table 11, WT RT): 40000 nM; EC50 (HIV-1 variant Y181C; [2]): > 100 µM; EC50 (HIV-1 variant L100I; [2]): 31.8 µM; EC50 (HIV-1 variant K103N; [2]): > 100 µM; EC50 (NL4-3 (WT); Table 10 (values in µM), isolate NL4-3 (WT), read-out: EC50): 2.88 µM

Which inhibition at 10 µM (HIV-1 WT RT; [4]) does the source give for Cc1cccc2c1nc(-c1c(F)cccc1F)n2S(=O)(=O)c1ccccc1 [compound 46] here?
Its inhibition at 10 µM is 39%.

With “1-(2,6-Difluorobenzyl)-2-(2,6-difluorophenyl)-4-hydroxyl-benzimidazole [compound 52]” as the compound, how does the EC50 (WT virus (NL4-3); [1]) read?
Its EC50 is 630 nM.

With Cc1cccc2c1nc(-c1c(F)cccc1F)n2Cc1ccccc1 [compound 29, 1-benzyl-2-(2,6-difluorophenyl)-4-methylbenzimidazole] as the compound, how does the inhibition at 10 µM (HIV-1 WT RT; [4]) read?
The inhibition at 10 µM was 87%.

How did the “cytotoxicity and anti-viral effect (summary graph)” value (WT virus (NL4-3)) turn out when Fc1cccc(F)c1Cn1c(-c2c(F)cccc2F)nc2cc(Br)ccc21 [compound 38, 1-(2,6-Difluorobenzyl)-2-(2,6-difluorophenyl)-5-bromobenzimidazole] was run?
The value was “inactive”.

For “1-(2,6-difluorobenzyl)-2-(2,6-difluorophenyl)benzimidazole-4-carboxylic acid amide [compound 62]”, which EC50 (WT virus (NL4-3); [1]) is on record?
Its EC50 is 4900 nM.

Which inhibition at 10 µM (HIV-1 WT RT; [5]) does the source give for Cc1cccc2c1nc(-c1cccc3ccccc13)n2Cc1c(F)cccc1F [compound 37, 1-(2,6-difluorobenzyl)-2-(1-naphthyl)-4-methylbenzimidazole] here?
The inhibition at 10 µM was 2%.

For CC(=O)N(C)Cc1cccc2c1nc(-c1c(F)cccc1F)n2Cc1c(F)cccc1F [compound 73, 1-(2,6-Difluorobenzyl)-2-(2,6-difluorophenyl)-4-(N-acetyl-N-methyl)-aminomethylbenzimidazole], which EC50 (WT virus (NL4-3); [1]) is on record?
The EC50 was 580 nM.

With Fc1cccc(F)c1-c1nc2ccccc2n1Cc1ccccc1 [compound 28, 1-benzyl-2-(2,6-difluorophenyl)benzimidazole] as the compound, how does the inhibition at 10 µM (HIV-1 WT RT; [4]) read?
Its inhibition at 10 µM is 71%.

Cc1ccccc1-c1nc2ccccc2n1Cc1c(F)cccc1F [compound 36, 1-(2,6-difluorobenzyl)-2-(2-methylphenyl)benzimidazole] was tested. Which inhibition at 10 µM (HIV-1 WT RT; [5]) did it give?
The inhibition at 10 µM was 71%.

Which EC50 (WT virus (NL4-3); [1]) does the source give for “1-(2,6-difluorobenzyl)-2-(2,6-difluorophenyl)benzimidazol-4-yl-methylamine [compound 71]” here?
Its EC50 is 37 nM.

With “1-(2,6-difluorobenzyl)-2-(2,6-difluorophenyl)-4-chloromethylbenzimidazole [compound 69]” as the compound, how does the EC50 (WT virus (NL4-3); [1]) read?
The EC50 was 180 nM.

Which EC50 (HIV-1 variant K101E; Human immunodeficiency virus 1, MT4, Table 9, isolate KIOIE) does the source give for CC(C)=CCn1c(-c2c(F)cccc2F)nc2c(C)cccc21 [(X= CH3) R = prenyl, 1-(3,3-dimethylallyl)-2-(2,6-difluorophenyl)-4-methylbenzimidazole] here?
The EC50 was > 20 µM.

What about the EC50 (HIV-1 variant Y181C; [6]) of the same compound?
Its EC50 is > 20 µM.

What about the EC50 (HIV-1 variant L100I; [6]) of the same compound?
The EC50 was 0.3 µM.

What about the EC50 (HIV-1 variant V108I; Human immunodeficiency virus 1, MT4, Table 9, isolate V1081) of the same compound?
The EC50 was > 20 µM.

And the EC50 (HIV-1 variant K103N; [6])?
The EC50 was > 20 µM.

And the EC50 (NL4-3 (WT); Human immunodeficiency virus 1, NL43, MT4, Table 9, isolate NL4.3)?
The EC50 was 1.3 µM.

Which EC50 (WT virus (NL4-3); [1]) does the source give for “1-(2,6-Difluorobenzyl)-2-(2,6-difluorophenyl)-benzimidazole-4-carbaldehyde [compound 68]” here?
Its EC50 is 120 nM.

How did the EC50 (WT virus (NL4-3); [1]) turn out when “1-(2,6-Difluorobenzyl)-2-(2,6-difluorophenyl)-4-hydroxymethylbenzimidazole [compound 67]” was run?
The EC50 was 23 nM.

With Cc1cccc2c1nc(-c1c(F)cccc1F)n2Cc1c(Cl)cccc1Cl [compound 30, 1-(2,6-dichlorobenzyl)-2-(2,6-difluorophenyl)-4-methylbenzimidazole] as the compound, how does the inhibition at 10 µM (HIV-1 WT RT; [4]) read?
Its inhibition at 10 µM is 58%.
